Reference: US20250188085A1, “COMPOSITIONS AND METHODS FOR INHIBITION OF RAS” (THERAS, INC., priority 2022, published 2025)

Tests used:
pERK in NCI-H358 cells = test: Cell-based pERK HTRF assay; details: Homo sapiens, NCI-H358, 0.5 h, 30 min incubation, read-out: pERK in NCI-H358 cell inhibition IC50
How it was run: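 Cells seeded at 4×10^4/well in RPMI with 10% FBS, then next day treated for 30 min with a 9-point, 3-fold series from 75 μM top concentration at 0.25% DMSO. Lysates were read for pERK by HTRF (d2/Eu cryptate antibodies) after 4–24 h at room temperature, emission at 615 nm.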

[1] = target: T1, GDP-loaded KRAS4b (amino acids 1-169) G12C/C118S protein (Homo sapiens, UniProt P01116, C118S/G12C); test: Covalent cysteine 12 modification by MALDI-TOF MS, GDP-loaded KRAS G12C; assay type: binding; details: 15 minutes reaction time point
T1 construct: KRAS4b (amino acids 1-169) G12C/C118S protein; made in house
How it was run: (§1)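 KRAS4b 1-169 G12C/C118S loaded with GDP, GppNHp or GTP was used at 1 μM in 20 mM HEPES, 150 mM NaCl, 1 mM MgCl2, pH 7.3, and incubated with compound (5 mM DMSO stock) at room temperature in the dark. % modification at 15 min is adduct peak height over total protein peak heights by linear-mode MALDI-TOF.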

[2] = target: T2, Avi-KRAS G12C (1-169) GppNHp/RAF1 RBD-3×FLAG (52-151) (Homo sapiens, UniProt P01116, G12C); test: Raf1 RBD-KRAS G12C-GppNHp disruption (protein:protein interaction HTRF assay); assay type: biochemical
T2 construct: Avi-KRAS G12C (1-169) GppNHp/RAF1 RBD-3×FLAG (52-151)
How it was run: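 HTRF measuring disruption of 50 nM Avi-KRAS G12C (1-169) loaded with GppNHp binding RAF1 RBD-3×FLAG (52-151), in pH 7.5 Tris buffer with 5 mM MgCl2, 0.1% BSA, 10% DMSO. KRAS preincubated with compound 1 h, then RBD 1 h, then detection reagents 1 h, all at room temperature. Compound titration 30-0.02 μM; activity expressed as percent of DMSO control.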

[3] = target: T3, GppNHp-loaded KRAS4b (amino acids 1-169) G12C/C118S protein (Homo sapiens, UniProt P01116, C118S/G12C); test: Covalent cysteine 12 modification by MALDI-TOF MS, GppNHp-loaded KRAS G12C; assay type: binding; details: 15 minutes reaction time point
T3 construct: KRAS4b (amino acids 1-169) G12C/C118S protein; made in house
How it was run: as §1

[4] = target: T4, GTP-loaded KRAS4b (amino acids 1-169) G12C/C118S protein (Homo sapiens, UniProt P01116, C118S/G12C); test: Covalent cysteine 12 modification by MALDI-TOF MS, GTP-loaded KRAS G12C; assay type: binding; details: 15 minutes reaction time point
T4 construct: KRAS4b (amino acids 1-169) G12C/C118S protein; made in house
Procedure: Reaction: 1 μM of GppNHp-, GTP-, or GDP-loaded KRAS4b (amino acids 1-169) G12C/C118S protein (produced in-house by Protein Expression Laboratory, FNLCR/Leidos Biomed) in 20 mM 4-(2-hydroxyethyl)-1-piperazineethanesulfonic acid (HEPES) buffer containing 150 mM NaCl, 1 mM MgCl2, pH 7.3 was prepared freshly before assay. Ten-μL aliquots of protein were dispensed onto low volume 384-well plate, then 375 nL DMSO, and 25 nL of tested compounds from 5 mM DMSO stocks were added to appropriate wells using ECHO 555 acoustic liquid handler (Labcyte Inc.). For each reaction/assay, three blanks were prepared by mixing 10 μL of protein solution with 400 nL DMSO. The contents of the wells were carefully mixed by aspiration, and then each plate was sealed with an adhesive cover, centrifuged at 2000 g for 1 minute, and kept in the dark at room temperature until 5 min, 15 min, 30 min, or 2 h collections.
Target pretreatment: Before each assay MALDI target (Bruker MPT 384 ground steel BC) was pre-treated by pipetting on each spot 0.75 μL of saturated sinapinic acid in acetonitrile (ACN).
Sample preparation: At collection time point, 2 μL of reaction mixtures were pipetted out into 20 μL MALDI matrix solution (saturated solution of sinapinic acid in 1:1 ACN:water solution containing 0.75% trifluoroacetic acid (TFA)) deposited on 384 well polypropylene plate. Resulting solution was mixed by aspiration, centrifuged at 2000 g for 1 minute, then 1 μL aliquots were dispensed on pre-treated MALDI target using Beckman Coulter Biomek FXP 96/384-Span-8 Laboratory Automation Workstation. Finally, the MALDI target was dried under mild vacuum to produce spots with fine crystalline structure.
Measurements: MALDI-TOF measurements were performed on a Bruker Daltonics rapiflex Tissuetyper TOF-TOF mass spectrometer using linear mode and mass range from 18.6 to 21.6 kDa. Detector gain was set to 3.3× (483 V), sample rate to 5 GS/s, real time smoothing to medium (175 MHz), laser smart beam pattern was set to: “MS Thin Layer M5”, and the laser frequency was 10000 Hz. Spectra were automatically collected using custom Auto Xecute method. Laser power was auto adjusted using fuzzy control. The peak selection range was set to be between 19000 and 21500 Da. Peak evaluation uses half width parameter set to be smaller than 40 Da for processed spectrograms (centroid peak detection; smoothed by SavitzkyGolay algorithm using 7 m/z width and 2 cycles; baseline was subtracted using median algorithm with flatness 1 and median level 0.01). Fuzzy control used Proteins/Oligonucleotides protocol with minimum half width 1/10 times above threshold. Up to 40000 satisfactory shots were collected in 10000 shot steps. Dynamic termination was implemented to finish data collection when peak signal/noise ratio was reaching value of 50.
Spectra processing: Spectra were smoothed by SavitzkyGolay algorithm using 7 m/z width and three cycles. Centroid peak detection algorithm was used with signal to noise threshold set to 6, relative intensity threshold 4%, peak width 10 m/z and median baseline subtraction using flatness of 1 and median level of 0.01. Peak intensity and area under the peak were evaluated and recorded for all peaks between 19,300 Da and 21,550 Da.
Calculation of percent modification: Percent modification was calculated as a ratio of peak height for protein modified by compound to sum of peak height of remaining protein plus peak height for protein modified by compound. If multiple modifications were observed each was calculated as a ratio of peak height for given modification versus sum of peak heights for all observed protein species. Data reported in Table 5 are from 15 minutes reaction time point.

| IC50 (pERK in NCI-H358 cells) | GDP-KRAS G12C percent of modification [1] | IC50 [2] | GppNHp-KRAS G12C percent of modification [3] | GTP-KRAS G12C percent of modification [4] | SMILES |
| --- | --- | --- | --- | --- | --- |
| 100 to 1000 nM | A (percent of modification ≥70%) | 500 to 5000 nM | C (10%≤modification <50%) | D (percent of modification <10%) | C=CC(=O)N1CC[C@@H](Oc2nc(OC[C@@]34CCCN3C[C@H](F)C4)nc3c(F)c(-c4c(F)cc(F)c5sc(N)nc45)ncc23)C1 [Compound 57] |
| ≤ 100 nM | A (percent of modification ≥70%) | ≤ 500 nM | A (percent of modification ≥70%) | B (50≤percent of modification <70%) | C=CC(=O)N1C[C@@H](F)[C@@H](Oc2nc(OC[C@@]34CCCN3C[C@H](F)C4)nc3cc(-c4ccc(F)c5sc(N)nc45)c(C(F)(F)F)cc23)C1 [Compound 58] |
| ≤ 100 nM | A (percent of modification ≥70%) | ≤ 500 nM | B (50≤percent of modification <70%) | C (10%≤modification <50%) | C=CC(=O)N1C[C@H](Oc2nc(OC[C@@]34CCCN3C[C@H](F)C4)nc3cc(-c4ccc(F)c5sc(N)nc45)c(C(F)(F)F)cc23)[C@@H](F)C1 [Compound 59] |
| ≤ 100 nM | A (percent of modification ≥70%) | ≤ 500 nM | B (50≤percent of modification <70%) | C (10%≤modification <50%) | C=CC(=O)N1CC[C@@H](Oc2nc(OC[C@@]34CCCN3C[C@H](F)C4)nc3cc(-c4ccc(F)c5sc(N)nc45)c(C(F)(F)F)cc23)[C@H]1C [Compound 60] |
| ≤ 100 nM | C (10%≤modification <50%) | ≤ 500 nM | C (10%≤modification <50%) | C (10%≤modification <50%) | C=CC(=O)N1CCC(Oc2nc(OC[C@@]34CCCN3C[C@H](F)C4)nc3c(F)c(-c4ccc(F)c5sc(N)c(C#N)c45)c(C(F)(F)F)cc23)C1(C)C (some centres unmarked) [Compound 61] |
| ≤ 100 nM | B (50≤percent of modification <70%) | ≤ 500 nM | B (50≤percent of modification <70%) | C (10%≤modification <50%) | C=CC(=O)N1CC[C@@H](Oc2nc(OC[C@@]34CCCN3C[C@H](F)C4)nc3c(F)c(-c4ccc(F)c5sc(N)c(C#N)c45)c(C(F)(F)F)cc23)[C@H]1C [Compound 62, 4-(4-(((2R,3R)-1-acryloyl-2-methylpyrrolidin-3-yl)oxy)-8-fluoro-2-(((2R,7aS)-2-fluorotetrahydro-1H-pyrrolizin-7a (5H)-yl)methoxy)-6-(trifluoromethyl)quinazolin-7-yl)-2-amino-7-fluorobenzo[b]thiophene-3-carbonitrile] |
| ≤ 100 nM | B (50≤percent of modification <70%) | ≤ 500 nM | A (percent of modification ≥70%) | B (50≤percent of modification <70%) | C=CC(=O)N1CC[C@@H](Oc2nc(OC[C@@]34CCCN3C[C@H](F)C4)nc3c(F)c(-c4ccc(F)c5sc(N)c(C#N)c45)c(C(F)(F)F)cc23)[C@H]1CO [Compound 65] |
| ≤ 100 nM | A (percent of modification ≥70%) | ≤ 500 nM | A (percent of modification ≥70%) | C (10%≤modification <50%) | C=CC(=O)N1C[C@H](Oc2nc(OC[C@@]34CCCN3C[C@H](F)C4)nc3c(F)c(-c4ccc(F)c5sc(N)nc45)c(C(F)(F)F)cc23)C[C@H]1CO [Compound 66] |
| ≤ 100 nM | B (50≤percent of modification <70%) | ≤ 500 nM | B (50≤percent of modification <70%) | B (50≤percent of modification <70%) | C=CC(=O)N1C[C@H](Oc2nc(OC[C@@]34CCCN3C[C@H](F)C4)nc3c(F)c(-c4ccc(F)c5sc(N)c(C#N)c45)c(C(F)(F)F)cc23)[C@@H](F)C1 [Compound 67] |
| 100 to 1000 nM | A (percent of modification ≥70%) | ≤ 500 nM | A (percent of modification ≥70%) | C (10%≤modification <50%) | C=CC(=O)N1C[C@H](Oc2nc(OC[C@@]34CCCN3C[C@H](F)C4)nc3c(F)c(-c4ccc(F)c5sc(N)c(C#N)c45)ccc23)C[C@H]1C [Compound 68] |
| ≤ 100 nM | A (percent of modification ≥70%) | ≤ 500 nM | A (percent of modification ≥70%) | C (10%≤modification <50%) | C=CC(=O)N1C[C@H](Oc2nc(OC[C@@]34CCCN3C[C@H](F)C4)nc3c(F)c(-c4ccc(F)c5sc(N)nc45)c(C(F)(F)F)cc23)C[C@@H]1CO [Compound 69] |
| ≤ 100 nM | A (percent of modification ≥70%) | ≤ 500 nM | A (percent of modification ≥70%) | B (50≤percent of modification <70%) | C=CC(=O)N1C[C@@H](F)[C@@H](Oc2nc(OC[C@@]34CCCN3C[C@H](F)C4)nc3c(F)c(-c4ccc(F)c5sc(N)c(C#N)c45)ncc23)C1 [Compound 70] |
| ≤ 100 nM | C (10%≤modification <50%) | ≤ 500 nM | C (10%≤modification <50%) | D (percent of modification <10%) | C=CC(=O)N1CC[C@@H](Oc2nc(OC[C@@]34CCCN3C[C@H](F)C4)nc3c(F)c(-c4ccc(F)c5sc(N)c(C#N)c45)c(C(F)(F)F)cc23)[C@H]1CF [Compound 71] |
